Reference: US11986532B2 (Arvinas Operations, Inc., priority 2021, dated 2024)
Read-outs that look alike come from different tables or passages of the source.

Molecular target: T1, BCL6 (Homo sapiens, UniProt P41182)
T1 construct: endogenous in cells; host or cells: T47D breast cancer epithelial cells
Assay: Immunofluorescence protocol for high content imaging of BCL6 (degradation) in T47D cells, 3 days compound treatment
Format: cell-based
Details: for DC50: read-out: Mean DC50 (nM)* category; for Dmax: read-out: Mean Dmax (%)** category
Method in brief: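 T47D cells in RPMI1640-10% FBS were treated with an 11-point 3-fold dilution series (final top 0.1 or 1 μM) for 3 days at 37° C. After PFA fixation and Triton permeabilization, cells were immunostained with rabbit anti-BCL6 (1:300, overnight 4° C), Alexa-488 secondary, CellMask-647 and Hoechst, then imaged at 10×, 4 fields/well.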

[1] = T47D cells, 3 days compound treatment

DC50 [1]	Dmax [1]	SMILES	Dmax (T47D)	DC50
< 10 nM	< 50%	CNC(=O)COc1cc2cc(Nc3nc(N4CCC(CN5CCC6(CN(c7ccc8c(c7)C(=O)N(C7CCC(=O)NC7=O)C8=O)C6)C(F)(F)C5)CC4)ncc3Cl)ccc2n(C)c1=O (stereo not drawn) [Compound 127, 2-{[6-({5-chloro-2-[4-({2-[2-(2,6-dioxopiperidin-3-yl)-1,3-dioxo-2,3-dihydro-1H-isoindol-5-yl]-5,5-difluoro-2,7-diazaspiro[3.5]nonan-7-yl}methyl)piperidin-1-yl]pyrimidin-4-yl}amino)-1-methyl-2-oxo-1,2-dihydroquinolin-3-yl]oxy}-N-methylacetamide]	–	–
–	–	CNC(=O)COc1cc2cc(Nc3nc(N4CCC(O[C@H]5C[C@H](N6CCC(c7c(OC)cc8c(c7F)CN(C7CCC(=O)NC7=O)C8=O)CC6)C5)CC4)ncc3Cl)ccc2n(C(C)C)c1=O (stereo partly drawn) [Compound 409, 2-({6-[(5-chloro-2-{4-[(1r,3r)-3-{4-[2-(2,6-dioxopiperidin-3-yl)-4-fluoro-6-methoxy-1-oxo-2,3-dihydro-1H-isoindol-5-yl]piperidin-1-yl}cyclobutoxy]piperidin-1-yl}pyrimidin-4-yl)amino]-2-oxo-1-(propan-2-yl)-1,2-dihydroquinolin-3-yl}oxy)-N-methylacetamide]	≥ 70%	< 10 nM
–	–	CNC(=O)COc1cc2cc(Nc3nc(N4CCC(O[C@H]5C[C@H](N6CC7CCC(C6)N7c6ccc7c(c6)C(=O)N(C6CCC(=O)NC6=O)C7=O)C5)CC4)ncc3Cl)ccc2n(C(C)C)c1=O (stereo partly drawn) [Compound 370, 2-({6-[(5-chloro-2-{4-[(1r,3r)-3-{8-[2-(2,6-dioxopiperidin-3-yl)-1,3-dioxo-2,3-dihydro-1H-isoindol-5-yl]-3,8-diazabicyclo[3.2.1]octan-3-yl}cyclobutoxy]piperidin-1-yl}pyrimidin-4-yl)amino]-2-oxo-1-(propan-2-yl)-1,2-dihydroquinolin-3-yl}oxy)-N-methylacetamide]	< 50%	10 to 50 nM
< 10 nM	< 50%	CNC(=O)COc1cc2cc(Nc3nc(N4CCN(C(=O)C5CCC6(CCN(c7ccc8c(c7)CN(C7CCC(=O)NC7=O)C8=O)C6)C5)CC4)ncc3Cl)ccc2n(C(C)C)c1=O (stereo not drawn) [Compound 66, 2-[(6-{[5-chloro-2-(4-{2-[2-(2,6-dioxopiperidin-3-yl)-1-oxo-2,3-dihydro-1H-isoindol-5-yl]-2-azaspiro[4.4]nonane-7-carbonyl}piperazin-1-yl)pyrimidin-4-yl]amino}-2-oxo-1-(propan-2-yl)-1,2-dihydroquinolin-3-yl)oxy]-N-methylacetamide]	–	–
–	–	CNC(=O)COc1cc2cc(Nc3nc(N4CCN(CC5CCC6(CC5)CN(c5ccc7c(c5)CN(C5CCC(=O)NC5=O)C7=O)C6)CC4)ncc3Cl)ccc2n(C(C)C)c1=O (stereo not drawn) [Compound 305, 2-{[6-({5-chloro-2-[4-({2-[2-(2,6-dioxopiperidin-3-yl)-1-oxo-2,3-dihydro-1H-isoindol-5-yl]-2-azaspiro[3.5]nonan-7-yl}methyl)piperazin-1-yl]pyrimidin-4-yl}amino)-2-oxo-1-(propan-2-yl)-1,2-dihydroquinolin-3-yl]oxy}-N-methylacetamide]	50 to 70%	< 10 nM
10 to 50 nM	≥ 70%	CNC(=O)COc1cc2cc(Nc3nc(N4CCC5(CCN(CC6CCN(c7cccc8c7C(=O)N(C7CCC(=O)NC7=O)C8=O)CC6)C5)C4)ncc3Cl)ccc2n(C(C)C)c1=O (stereo not drawn) [Compound 11]	–	–
–	–	CNC(=O)COc1cc2c(F)c(Nc3cc(N4CCC(CN5CCC6(CN(c7ccc8c(c7)CN(C7CCC(=O)NC7=O)C8=O)C6)C(F)(F)C5)CC4)ncc3Cl)ccc2n(C(C)C)c1=O (stereo not drawn) [Compound 251, 2-{[6-({5-chloro-2-[4-({2-[2-(2,6-dioxopiperidin-3-yl)-1-oxo-2,3-dihydro-1H-isoindol-5-yl]-5,5-difluoro-2,7-diazaspiro[3.5]nonan-7-yl}methyl)piperidin-1-yl]pyridin-4-yl}amino)-5-fluoro-2-oxo-1-(propan-2-yl)-1,2-dihydroquinolin-3-yl]oxy}-N-methylacetamide]	≥ 70%	< 10 nM
< 10 nM	50 to 70%	CNC(=O)COc1cc2cc(Nc3nc(N4CCN(CC5CCN(c6cc7c(c(OC)c6)C(=O)N(C6CCC(=O)NC6=O)C7)CC5)CC4)ncc3Cl)ccc2n(C(C)C)c1=O (stereo not drawn) [Compound 26]	–	–
–	–	CNC(=O)COc1cc2cc(Nc3nc(N4CCN(CC5CCC6(CC5)CN(c5ccc7c(c5F)CN(C5CCC(=O)NC5=O)C7=O)C6)CC4)ncc3Cl)ccc2n(C(C)C)c1=O (stereo not drawn) [Compound 307, 2-{[6-({5-chloro-2-[4-({2-[2-(2,6-dioxopiperidin-3-yl)-4-fluoro-1-oxo-2,3-dihydro-1H-isoindol-5-yl]-2-azaspiro[3.5]nonan-7-yl}methyl)piperazin-1-yl]pyrimidin-4-yl}amino)-2-oxo-1-(propan-2-yl)-1,2-dihydroquinolin-3-yl]oxy}-N-methylacetamide]	50 to 70%	< 10 nM
–	–	CNC(=O)COc1cc2cc(Nc3cc(N4CCC(CN5CCC6(CC5)CN(c5ccc7c(c5OC)CN(C5CCC(=O)NC5=O)C7=O)C6(C)C)CC4)ncc3Cl)ccc2n(C(C)C)c1=O (stereo not drawn) [Compound 230, 2-{[6-({5-chloro-2-[4-({2-[2-(2,6-dioxopiperidin-3-yl)-4-methoxy-1-oxo-2,3-dihydro-1H-isoindol-5-yl]-1,1-dimethyl-2,7-diazaspiro[3.5]nonan-7-yl}methyl)piperidin-1-yl]pyridin-4-yl}amino)-2-oxo-1-(propan-2-yl)-1,2-dihydroquinolin-3-yl]oxy}-N-methylacetamide]	–	< 10 nM
10 to 50 nM	50 to 70%	CNC(=O)COc1cc2cc(Nc3nc(N4CCC5(CCN(CC6(F)CCN(c7cccc8c7C(=O)N(C7CCC(=O)NC7=O)C8=O)CC6)CC5)CC4)ncc3Cl)ccc2n(C(C)C)c1=O (stereo not drawn) [Compound 63, 2-{[6-({5-chloro-2-[9-({1-[2-(2,6-dioxopiperidin-3-yl)-1,3-dioxo-2,3-dihydro-1H-isoindol-4-yl]-4-fluoropiperidin-4-yl}methyl)-3,9-diazaspiro[5.5]undecan-3-yl]pyrimidin-4-yl}amino)-2-oxo-1-(propan-2-yl)-1,2-dihydroquinolin-3-yl]oxy}-N-methylacetamide]	–	–
–	–	CNC(=O)COc1cc2cc(Nc3nc(N4CCC(O[C@H]5C[C@H](N6CC7(CN(c8ccc9c(c8)C(=O)N(C8CCC(=O)NC8=O)C9=O)C7)C6)C5)CC4)ncc3Cl)ccc2n(C(C)C)c1=O (stereo partly drawn) [Compound 311, 2-({6-[(5-chloro-2-{4-[(1r,3r)-3-{6-[2-(2,6-dioxopiperidin-3-yl)-1,3-dioxo-2,3-dihydro-1H-isoindol-5-yl]-2,6-diazaspiro[3.3]heptan-2-yl}cyclobutoxy]piperidin-1-yl}pyrimidin-4-yl)amino]-2-oxo-1-(propan-2-yl)-1,2-dihydroquinolin-3-yl}oxy)-N-methylacetamide]	50 to 70%	< 10 nM
–	–	CNC(=O)COc1cc2cc(Nc3nc(N4CCC(O[C@H]5C[C@H](N6CCC(F)(c7ccc8c(c7)C(=O)N(C7CCC(=O)NC7=O)C8=O)CC6)C5)CC4)ncc3Cl)ccc2n(C(C)C)c1=O (stereo partly drawn) [Compound 276, 2-({6-[(5-chloro-2-{4-[(1r,3r)-3-{4-[2-(2,6-dioxopiperidin-3-yl)-1,3-dioxoisoindol-5-yl]-4-fluoropiperidin-1-yl}cyclobutoxy]piperidin-1-yl}pyrimidin-4-yl)amino]-1-isopropyl-2-oxoquinolin-3-yl}oxy)-N-methylacetamide]	50 to 70%	10 to 50 nM
< 10 nM	50 to 70%	CNC(=O)COc1cc2cc(Nc3nc(N4CCC(OC5CN([C@H]6CC[C@H](c7ccc8c(c7)CN(C7CCC(=O)NC7=O)C8=O)CC6)C5)CC4)ncc3Cl)ccc2n(C(C)C)c1=O (single isomer, unassigned) [Compound 165, 2-((6-((5-chloro-2-(4-((1-((1r,4r)-4-(2-(2,6-dioxopiperidin-3-yl)-1-oxoisoindolin-5-yl)cyclohexyl)azetidin-3-yl)oxy)piperidin-1-yl)pyrimidin-4-yl)amino)-1-isopropyl-2-oxo-1,2-dihydroquinolin-3-yl)oxy)-N-methylacetamide]	–	–
–	–	CNC(=O)COc1cc2cc(Nc3nc(N4CCC(O[C@H]5C[C@H](N6CCN(c7cc8c(cc7F)C(=O)N(C7CCC(=O)NC7=O)C8=O)[C@H](C)C6)C5)CC4)ncc3Cl)ccc2n(C(C)C)c1=O (stereo partly drawn) [Compound 408, 2-({6-[(5-chloro-2-{4-[(1r,3r)-3-[(3R)-4-[2-(2,6-dioxopiperidin-3-yl)-6-fluoro-1,3-dioxo-2,3-dihydro-1H-isoindol-5-yl]-3-methylpiperazin-1-yl]cyclobutoxy]piperidin-1-yl}pyrimidin-4-yl)amino]-2-oxo-1-(propan-2-yl)-1,2-dihydroquinolin-3-yl}oxy)-N-methylacetamide]	50 to 70%	50 to 100 nM

SMILES	DC50 [1]	Dmax [1]	Dmax (T47D)	DC50
CNC(=O)COc1cc2cc(Nc3nc(N4CCC(O[C@H]5C[C@H](N6CCC(c7ccc8c(c7OC)CN(C7CCC(=O)NC7=O)C8=O)CC6)C5)CC4)ncc3Cl)ccc2n(C(C)C)c1=O (stereo partly drawn) [Compound 72, 2-[[6-[[5-chloro-2-[4-[3-[4-[2-(2,6-dioxo-3-piperidyl)-4-methoxy-1-oxo-isoindolin-5-yl]-1-piperidyl]cyclobutoxy]-1-piperidyl]pyrimidin-4-yl]amino]-1-isopropyl-2-oxo-3-quinolyl]oxy]-N-methyl-acetamide]	< 10 nM	50 to 70%	–	–
CNC(=O)COc1cc2cc(Nc3nc(N4CCC(O[C@H]5C[C@H](N6CCN(c7ccc8c(c7C)C(=O)N(C7CCC(=O)NC7=O)C8=O)[C@H](C)C6)C5)CC4)ncc3Cl)ccc2n(C(C)C)c1=O (stereo partly drawn) [Compound 193, 2-({6-[(5-chloro-2-{4-[(1r,3r)-3-[(3R)-4-[2-(2,6-dioxopiperidin-3-yl)-4-methyl-1,3-dioxoisoindol-5-yl]-3-methylpiperazin-1-yl]cyclobutoxy]piperidin-1-yl}pyrimidin-4-yl)amino]-1-isopropyl-2-oxoquinolin-3-yl}oxy)-N-methylacetamide]	< 10 nM	≥ 70%	–	–
